Results from patent US20130109693A1, “DERIVATIVES OF PYRIDO [3,2-D] PYRIMIDINE, METHODS FOR PREPARATION THEREOF AND THERAPEUTIC USES THEREOF” (UNIVERSITE D'ORLEANS, priority 2010, published 2013).

What was measured:
GSK-3αβ = GSK-3αβ kinase inhibition (GS-1 substrate, buffer A); type: biochemical; settings: 15 μM ATP, 30° C., native, pig brain; read-out: IC50 Kinases GSK3
Protocol: (§1) The activities for inhibiting protein kinases of the compounds of the invention are tested according to the following general procedure:
(§2) Buffer A: 10 mM MgCl2, 1 mM EGTA, 1 mM DTT, 25 mM Tris-HCl pH 7.5 and 50 μg heparin/mL.
(§3) The kinase activities are dosed in buffers A or C, at 30° C., at a final concentration of ATP of 15 μM. The values of the blanks were subtracted and the activities are expressed as a % of the maximum activity, i.e. in the absence of inhibitors. The controls were carried out with suitable dilutions of DMSO.
GSK-3αβ (from pig brain, native) was assayed by using a specific substrate of GSK-3 (GS-1: […]pEDEEE)(Sp represents a phosphorylated serine) (Primot, A., Baratte, B., Gompel, M., Borgne, A., Liabeuf, S., Romette, J. L., Costantini, F. and Meijer, L., 2000. Purification of GSK-3 by affinity chromatography on immobilized axin. Protein Expr. & Purif. 20 (3), 394-404). GS-1 was synthesized by Millegen (Labège, France). Its kinase activity was analyzed in the buffer A, with 1 mg of histone H1/mL, in the presence of 15 μM of [γ-^33P] ATP (3,000 Ci/mmol; 10 mCi/mL) in a final volume of 30 μl. After 30 mins of incubation at 30° C., 25 μl of supernatant aliquots were deposited on 2.5×3 cm pieces of phosphocellulose Whatman P81papier, and after 20 seconds, the filters were washed five times (for at least 5 minutes every time) in a solution of 10 mL of phosphoric acid/liter of water. The wet filters were counted in the presence of 1 mL of ACS scintillator fluid (Amersham).

DYRK1A = DYRK1A (Homo sapiens, UniProt Q13627); assay: DYRK1A kinase inhibition (Woodtide substrate, buffer A); type: biochemical; settings: 15 μM ATP, 30° C., recombinant GST fusion; read-out: IC50 Kinases DYRK1A
Protocol: as §1, §2, §3

CDK5 = target: T1, CDK5 (Homo sapiens, UniProt Q00535); assay: CDK5 kinase inhibition (histone H1, [γ-33P] ATP, buffer C); type: biochemical; settings: 15 μM ATP, 30° C., recombinant; read-out: IC50 Kinases CDK5
T1 construct: made in house
T1 sequence (Q00535 whole entry): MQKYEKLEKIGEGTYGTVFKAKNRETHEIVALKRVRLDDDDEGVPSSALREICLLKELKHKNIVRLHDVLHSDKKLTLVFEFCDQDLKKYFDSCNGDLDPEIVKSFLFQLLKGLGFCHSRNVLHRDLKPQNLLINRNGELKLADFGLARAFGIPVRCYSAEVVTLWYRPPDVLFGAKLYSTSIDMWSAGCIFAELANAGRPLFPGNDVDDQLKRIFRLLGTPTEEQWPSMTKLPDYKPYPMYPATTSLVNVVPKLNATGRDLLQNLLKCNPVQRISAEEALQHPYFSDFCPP
T1 sequence (Q15078 99-307 partner limits assumed): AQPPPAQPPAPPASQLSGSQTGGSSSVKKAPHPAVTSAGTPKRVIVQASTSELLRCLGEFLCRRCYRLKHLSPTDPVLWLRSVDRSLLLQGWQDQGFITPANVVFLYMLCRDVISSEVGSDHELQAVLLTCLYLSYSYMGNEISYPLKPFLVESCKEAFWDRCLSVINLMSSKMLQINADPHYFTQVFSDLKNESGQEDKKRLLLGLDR
Protocol: as §1
Buffer C: 60 mM β-glycerophosphate, 15 mM p-nitrophenyl-phosphate, 25 mM Mops (pH 7.2), 5 mM EGTA, 15 mM MgCl2, 1 mM DTT, 1 mM of sodium vanadate
as §3
CDK5 (humane, recombinant) was prepared as described earlier (Leclerc, S.; Garnier, M.; Hoessel, R.; Marko, D.; Bibb, J. A.; Snyder, G. L.; Greengard, P.; Biernat, J.; Mandelkow, E.-M.; Eisenbrand, G.; Meijer, L. Indirubins inhibit glycogen synthase kinase-3β and CDK5/p25, two kinases involved in abnormal tau phosphorylation in Alzheimer's disease—A property common to most CDK inhibitors? J. Biol. Chem. 2001, 276, 251-260; Bach S, Knockaert M, Reinhardt J, Lozach O, Schmitt S, Baratte B et al. (2005). Roscovitine targets, protein kinases and pyridoxal kinase. J. Biol Chem 280: 31208-31219). Its kinase activity was analyzed in the buffer C, with 1 mg of histone H1/mL, in the presence of 15 μM of [γ-^33P] ATP (3,000 Ci/mmol; 10 mCi/mL) in a final volume of 30 μl. After 30 mins of incubation at 30° C., 25 μl of supernatant aliquots were deposited on 2.5×3 cm pieces of phosphocellulose Whatman P81 paper, and after 20 seconds, the filters were washed five times (for at least 5 minutes every time) in a solution of 10 mL phosphoric acid/liter of water. The wet filters were counted in the presence of 1 mL of ACS scintillator fluid (Amersham).

HCT 116 = assay: Cytotoxicity on human cells, HCT 116 (colon); type: cell-based; settings: exposed 24 h and 48 h, 0.1 to 25 μM
Protocol: (§4) […] Dosages on Human cells (Huh7, Caco, MDA-MB 231, HCT 116, PC3, NCl, Fibroblast)
(§5) Cytotoxicity: This method is based on an automated imaging analysis. 4.10^3 cells were cultivated on 96-well plates and thus left for 24 hours so that they may bind, be distributed and proliferate.
(§6) These cells were then exposed for 24 h and 48 h to increasing concentrations of the compounds of the invention, from 0.1 to 25 μM in a final volume of 80 μL of culture medium. The cells are then set with a 4% paraformaldehyde solution and the nuclei are colored with Hoechst 3342 and counted according to automated imaging quantification.
(§7) All the cell lines were cultivated in a DMEM or RPMI (Invitrogen) medium. All these media were completed with antibiotics (penicillin-streptomycin)(Lonza) and 10% by volume of foetal calf serum (Invitrogen). The cells were cultivated at 37° C. with 5% of CO2. The treatments with the molecules to be tested were carried out with increasing concentrations. […] The control experiments were also conducted by using suitable dilutions of DMSO (maximum 1% DMSO). Cell viability was determined by measuring the reduction of MTS as described in the article of Ribas J, Boix J. (2004). Cell differentiation caspase inhibition and macromolecular synthesis blockage but not BCL-2 or BCL-XL proteins protect SH-SY5Y cells from apoptosis triggered by two CDK inhibitory drugs. Exp. Cell Res., 295: 9-24.

Huh7 = assay: Cytotoxicity on human cells, Huh7 (liver); type: cell-based; settings: Huh-7, human cells, exposed 24 h and 48 h, 0.1 to 25 μM
Protocol: as §4, §5, §6, §7

fibroblast = assay: Cytotoxicity on human cells, fibroblast; type: cell-based; settings: exposed 24 h and 48 h, 0.1 to 25 μM
Protocol: as §4, §5, §6, §7

NCI = assay: Cytotoxicity on human cells, NCI (lung); type: cell-based; settings: exposed 24 h and 48 h, 0.1 to 25 μM
Protocol: as §4, §5, §6, §7

MDA-MB 231 = assay: Cytotoxicity on human cells, MDA-MB 231 (breast); type: cell-based; settings: MDA-MB-231, human cells, exposed 24 h and 48 h, 0.1 to 25 μM
Protocol: as §4, §5, §6, §7

PC3 = assay: Cytotoxicity on human cells, PC3 (prostate); type: cell-based; settings: PC-3, human cells, exposed 24 h and 48 h, 0.1 to 25 μM
Protocol: as §4, §5, §6, §7

Caco = assay: Cytotoxicity on human cells, Caco (colon); type: cell-based; settings: exposed 24 h and 48 h, 0.1 to 25 μM
Protocol: as §4, §5, §6, §7

Structure (SMILES) | IC50 (GSK-3αβ) [µM] | IC50 (DYRK1A) [µM] | melting point [°C] | IC50 (CDK5) [µM] | IC50 (HCT 116) [µM] | IC50 (Huh7) [µM] | IC50 (fibroblast) [µM] | IC50 (NCI) [µM] | IC50 (MDA-MB 231) [µM] | IC50 (PC3) [µM] | IC50 (Caco) [µM]
Oc1ccc(Nc2ncc3ncc(Cl)cc3n2)cc1 [Compound 59, 7-Chloro-2-(4-hydroxyphenylamino)-pyrido[3,2-d]pyrimidine] | > 10 | > 10 | 232 to 234 | 1.1 | 2 | 12 | 5 | 10 | 6 | 12 | > 25
Oc1ccc(Nc2ncc3ncc(-c4ccccc4O)cc3n2)cc1 [Compound 60, 2-(4-Hydroxyphenylamino)-7-(2-hydroxyphenyl)-pyrido[3,2-d]pyrimidine] | > 10 | > 10 | 262 to 264 | 3.7 | 8 | 6 | 5 | 5 | 10 | 20 | 4
COc1ccc(Nc2cnc3c(NCc4ccccc4)nc(NCCO)nc3c2)cc1OC [Compound 85, 4-Benzylamino-7-(3,4-dimethoxyphenylamino)-2-(2-hydroxyethylamino)-pyrido[3,2-d]pyrimidine] | > 10 | > 10 | 149 to 150 | > 10 | 4 | 1.5 | 5 | 2 | 15 | 4 | 4
CC(=O)c1ccc(Nc2cnc3c(NCc4ccccc4)nc(NCCO)nc3c2)cc1 [Compound 86, 4-Benzylamino-7-(4-acetylphenylamino)-2-(2-hydroxyethylamino)-pyrido[3,2-d]pyrimidine] | > 10 | > 10 | 125 to 126 | > 10 | 1 | 2 | 5 | 2 | 15 | 3 | 3

The next molecules have a lower IC50 (GSK-3αβ) than those just listed; values first:

IC50 (GSK-3αβ) [µM] | IC50 (DYRK1A) [µM] | melting point [°C] | IC50 (CDK5) [µM] | Structure (SMILES) | IC50 (HCT 116) [µM] | IC50 (Huh7) [µM] | IC50 (fibroblast) [µM] | IC50 (NCI) [µM] | IC50 (MDA-MB 231) [µM] | IC50 (PC3) [µM] | IC50 (Caco) [µM]
4.5 | > 10 | > 268 | 0.71 | Oc1ccc(Nc2ncc3ncc(-c4cccc(O)c4)cc3n2)cc1 [Compound 61, 2-(4-Hydroxyphenylamino)-7-(3-hydroxyphenyl)-pyrido[3,2-d]pyrimidine] | 12 | 10 | 2 | 4 | 9 | 7 | 12
7.1 | > 10 | > 268 | 0.84 | Oc1ccc(Nc2ncc3ncc(-c4ccc(O)cc4)cc3n2)cc1 [Compound 62, 2-(4-Hydroxyphenylamino)-7-(4-hydroxyphenyl)-pyrido[3,2-d]pyrimidine] | 12 | 12 | 5 | 4 | 10 | 15 | 15
